Source: patent US5112866A, “Ethanesulfonamide derivatives” (Ortho Pharmaceutical Corporation, priority 1989, dated 1992)
pIC50: −log10 of the molar value. Where two headings read alike, the source gives them in different places. Blank lines part the entries; values can stand above or below the compound they belong to.

Assays:
[1] = cited from earlier work
[2] = tested on: osteoblasts; conditions: Farley, et al., Science, 1983; cited from earlier work
[3] = tested on: Mouse osteoblastic-line cells (MC3T3-El); experiment: Mouse Osteoblast-line Cell Proliferation (3H-thymidine); format: cell-based; conditions: 0.1% FBS
Protocol: Pharmacology of the Ethenesulfonyl Fluoride Compounds--In Vitro Mouse Osteoblast-line Cell Proliferation
Reagents: Mouse osteoblastic-line cells (MC3T3-El) were plated in Dulbeccos Modified Eagles Medium (DMEM) with 25 mM Hepes Buffer, L-Glutamine, D-Glucose(4.5 gm/1) supplemented with 10% fetal bovine sera, Penicillin (100 units/ml) and Streptomycin ([…]) (Penicillin-Streptomycin liquid) and sodium pyruvate (10 μM final concentration). ^3 H-Thymidine (6.7 Ci/mmole) was diluted in DMEM media without FBS and filter sterilized. An aliquot of this solution was delivered to each culture well to a final concentration of ^3 H-thymidine of 0.4 μCi per well (2 μCi/ml).
Test Preparations: Solutions of the test compound were made on the day before incubation. These compounds were solubilized in either ethanol or DMSO at a concentration of 100 mM containing 0.1% FBS. The solutions were filter sterilized and then sterile serial dilutions were performed with DMEM media containing 0.1% FBS.
Osteoblast line cells were plated into 96 well culture plates, 1600 cells in 100 μL per well in DMEM with 25 mM Hepes Buffer, L-Glutamine, D-Glucose (4.5 gm/L) supplemented with 10% fetal bovine sera, Penicillin (100 units/mL) and Streptomycin (100 μg/mL) and sodium Pyruvate (10 μM final concentration). The media was replaced with DMEM containing no FBS and the cells were then incubated for an additional 24 hours. The following day, test compounds were added and screened at concentrations ranging from 10^-10 to 10^-5 M in the Presence of 0.1% FBS. The cells were then incubated an additional 20 hours. At this time 0.4 μ/Ci of 3H-thymidine was added to each culture well and the cells were incubated an additional 4 hours. The cells were then harvested with a Skatron Cell Harvester onto a glass fiber filter and washed with water, %5 trichloroacetic acid (TCA) and then 95% ethanol. The filters were then processed and counted on the LKB beta plate scintillation counter.

[4] = tested on: tibia; experiment: In vivo [3H]Tetracycline incorporation into tibia, bone mitogen activity in the aged Fisher 344 rat; design: species or system rat (female Fisher 344); conditions: daily intraperitoneal, sesame oil
Protocol: (§1) Pharmacology of the Ethenesulfonyl Fluoride Compounds--[…] Bone Mitogen Activity in the Aged Fisher 344 Rat
(§2) Animals: Female Fisher 344 rats, 12 months of age, were housed in climate controlled light/dark (12-hour cycle) rooms and given food and water ad libitum.
(§3) Test Compounds: The test compounds were suspended in sesame oil and administered daily via intraperitoneal injections; vehicle treated rats were administered sesame oil along (2 mL/kg).
In vivo [^3 H]Tetracycline Incorporation: Tritiated tetracycline, which is rapidly concentrated in the growing skeleton, can be used as a relative measure of bone forming surface in vivo. [^3 H]Tetracycline was injected intraperitoneally at a dose of 0.125 μCi/g body weight in a 0.9% NaCl solution. Two hours after injection, rats were bled by cardiac puncture and then killed by CO2 asphyxiation and the tibia removed and cleaned of tissue and marrow. The tibia are homogenized and digested in 2 N NaOH for 2 hours. The precipitate is washed and then hydrolyzed in 6N Hcl. An aliquot of the resulting supernatant is analyzed for tritiutum.

[5] = tested on: Rabbit Isolated Parietal Cells; experiment: Inhibition of 14C-aminopyrine accumulation in stimulated rabbit isolated parietal cells; format: cell-based; conditions: Oryctolagus cuniculus, 37° C.
Source text: Pharmacology of the Ethanesulfonamide Compounds - Rabbit Isolated Parietal Cells
Parietal cells were isolated from the fundic mucosa of rabbit stomachs by a four-stage collagenase digestion Process. The supernatant fraction from the last two stages of this Process contained the individual parietal cells. This cell suspension was centrifuged and reconstituted in a modified Hank's buffer to contain 2-3×10^6 cells/ml. […] The accumulation is stimulated by histamine and is blocked by H2 antagonists. Accumulation of ^14 C-AP is also stimulated by dibutyryl cAMP (dbcAMP). The cells were incubated with 0.5×10^6 cpm ^14 C-AP, with various concentrations of histamine or dbcAMP, […] isobutylmethylxanthine, and test compound added in a 20 μl volume of buffer or dimethylsulfoxide. The flasks were incubated in a shaking water bath at 37° C. Two 0.5 ml aliquots were then taken from each flask and cell pellets were collected by centrifugation. The pellets were solubilized with Protosol (NEN) and radioactivity determined by liquid scintillation spectrometry.
The concentration of compound required to inhibit ^14 C-AP accumulation in the stimulated parietal cell by 50% (IC50) was determined.

[6] = tested on: Gastric Secretion; experiment: Inhibition of Gastric Secretion in Rat (pylorus ligated); format: in vivo, rat (male Charles River); conditions: intraduodenal, four hours after pylorus ligation
Protocol: Inhibition of Gastric Secretion in Rat
Male Charles River rats weighing 150-300 grams were deprived of food but not water for 18-24 hours prior to use. Water was withheld during the experiment. The rats were weighed, anesthetized with ether and the pylorus ligated according to the method of Shay, H. et al., Gastroenterol. 26, 906 (1954). Test compounds were suspended in a 0.5% aqueous solution of methylcellulose (15 cps) and administered intraduodenally (i.d.) at the time of ligation. The rats were housed two per cage and sacrificed with CO2 four hours after ligation. The stomachs were removed and contents emptied into a graduated centrifuge tube. The tubes were centrifuged, the volume of gastric juice recorded, and any samples obviously contaminated by feces, food or blood eliminated. A 1 ml aliquot of gastric juice was titrated with 0.1 N NaOH to a pH of 7.0-7.4.
The volume of gastric juice secreted, the acid concentration, and the product of the volume times the concentration, i.e., the total amount of acid secreted, were statistically compared by a student's t-test using the pooled error variance.

[7] = tested on: bone protein; experiment: In vivo [3H]Proline incorporation into bone protein, bone mitogen activity in the aged Fisher 344 rat; design: species or system rat (female Fisher 344); conditions: daily intraperitoneal, sesame oil
Protocol: as §1, §2, §3
In vivo [^3 H]Proline Incorporation: [^3 H]Proline incorporation into bone protein was carried out as previously described (Reddi and Huggins, 1975). [^3 H]Proline was injected intraperitoneally at a dose of 0.5 μCi/g body weight in 0.9% NaCl. Four hours after the injection, rats were bled by cardiac puncture and then killed by CO2 asphyxiation and the tibia removed and the radioactivity quantified as in Example 28.

[8] = 14C-AP accumulation stimulated by dibutyryl cAMP, read-out: IC50 (dbcAMP)
[9] = 14C-AP accumulation stimulated by histamine, read-out: IC50 (H)

SMILES: [F-].[Na+] [sodium fluoride, Sodium fluoride]
rate of bone fracture ([1]; fluoride treatment, Riggs, et al., N. Engl. J. Med., 1982): significantly decreased
adverse reactions ([1]; in vivo): gastrointestinal side effects (nausea, vomiting, diarrhea and bleeding) and rheumatic complications (synovitis and plantar fascial syndrome)
bone formation and bone mass ([1]; osteoporosis): increases bone formation and leads to an increase in bone mass in osteoporosis
proliferation and activity of bone forming cells, osteoblasts [2]: causes proliferation and increases the activity of bone forming cells, osteoblasts

SMILES: O=S(=O)(F)CCNc1ccc(Cl)cc1 [Example 15]
Mouse Osteoblast-line Cell Proliferation [Expressed as a Percent of Control] ([3]; 0.001 μM): 129.6% of Control
Mouse Osteoblast-line Cell Proliferation [Expressed as a Percent of Control] ([3]; 0.01 μM): 119.9% of Control
Mouse Osteoblast-line Cell Proliferation [Expressed as a Percent of Control] ([3]; 0.1 μM): 123.5% of Control
Mouse Osteoblast-line Cell Proliferation [Expressed as a Percent of Control] ([3]; 1.0 μM): 93.4% of Control
Mouse Osteoblast-line Cell Proliferation [Expressed as a Percent of Control] ([3]; 10 μM): 106.7% of Control
Percent Incorporation of [3H]Tetracycline of Control ([4]; 15 mg/Kg): 118.0 Percent Incorporation of Contr
Percent Incorporation of [3H]Tetracycline of Control ([4]; 25 mg/Kg): 114.0 Percent Incorporation of Contr
Percent Incorporation of [3H]Tetracycline of Control ([4]; 50 mg/Kg): 125.1 Percent Incorporation of Contr

SMILES: O=S(=O)(CCNc1ccc(Cl)c(Cl)c1)NCCCOc1cccc(CN2CCCCC2)c1 [Example 1]
pIC50 [5, 8]: 6.89
pIC50 [5, 9]: 6.43
% Reduction of Total Acid Output ([6]; Dose 40 MPK): 47.9%

SMILES: COc1cc(NCCS(=O)(=O)F)c(C(C)=O)cc1OC [Example 14]
Percent Incorporation of [3H]Proline of Control ([7]; 15 mg/Kg): 100.7 Percent Incorporation of Contr
Percent Incorporation of [3H]Proline of Control ([7]; 50 mg/Kg): 118.1 Percent Incorporation of Contr
Percent Incorporation of [3H]Proline of Control ([7]; 150 mg/Kg): 121.0 Percent Incorporation of Contr
Mouse Osteoblast-line Cell Proliferation [Expressed as a Percent of Control] ([3]; 0.001 μM): 120.9% of Control
Mouse Osteoblast-line Cell Proliferation [Expressed as a Percent of Control] ([3]; 0.01 μM): 159.5% of Control
Mouse Osteoblast-line Cell Proliferation [Expressed as a Percent of Control] ([3]; 0.1 μM): 125.3% of Control
Mouse Osteoblast-line Cell Proliferation [Expressed as a Percent of Control] ([3]; 1.0 μM): 170.3% of Control
Mouse Osteoblast-line Cell Proliferation [Expressed as a Percent of Control] ([3]; 10 μM): 180.3% of Control
Percent Incorporation of [3H]Tetracycline of Control ([4]; 50 mg/Kg): 119.6 Percent Incorporation of Contr

Continued, in another order:

pIC50 [5, 8]: 5.74
pIC50 [5, 9]: 6.04
SMILES: O=S(=O)(CCNc1ccc(F)cc1)NCCCOc1cccc(CN2CCCCC2)c1 [Example 2, 2-[(4-Fluorophenyl)amino]-N-[3-[3-(piperidinomethyl)phenoxy]propyl]ethanesulfonamide]
% Reduction of Total Acid Output ([6]; Dose 40 MPK): 22.1%

pIC50 [5, 8]: 5.64
pIC50 [5, 9]: 6.41
SMILES: CCOC(=O)c1ccc(NCCS(=O)(=O)NCCCOc2cccc(CN3CCCCC3)c2)cc1 [Example 3]
% Reduction of Total Acid Output ([6]; Dose 40 MPK): 25.6%

pIC50 [5, 8]: 6.34
pIC50 [5, 9]: 7.24
SMILES: CC1CCN(Cc2cccc(OCCCNS(=O)(=O)CCNc3ccc(Cl)c(Cl)c3)c2)CC1 [Example 11, 2-[(3,4-Dichlorophenyl)amino]-N-[3-[3-[(4-methylpiperidin-1-yl)methyl]-phenoxy]propyl]ethanesulfonamide]
% Reduction of Total Acid Output ([6]; Dose 20 MPK): 29.0%
